Series [1] has as its target T1, Hb (Homo sapiens, UniProt P68871+P69905).
T1 construct: from tissue; host or cells: whole blood
The series can be described thus: Whole blood assay: oxygen equilibrium curves (Hemox Analyzer), change in p50. The settings on record: whole blood incubated 1 h at 37° C., equimolar ratio of hemoglobin to compound. In kind it is cell-based. How it is done:
Whole blood assay: Oxygen equilibrium curves (OECs) were collected using a TCS Hemox Analyzer (TCS Scientific Company, New Hope, Pa., USA) to measure changes in the binding affinity of O2 to Hb. Whole blood was incubated for 1 h at 37° C. with the indicated compounds in an equimolar ratio of hemoglobin to compound and diluted into TES (2-[[1,3-dihydroxy-2-(hydroxymethyl)propan-2-yl]amino]ethanesulfonic acid)/saline buffer prior to measurements. For example, for whole blood at 20% hematocrit [Hct], which corresponds to 1 mM Hb, a compound concentration of 1 mM was used (for example, for compounds 1-5), and the incubated sample diluted 50- to 100-fold. The concentration for compounds 6-44 (Diastereomers 1 and 2) varied but remained in equimolar ratio to hemoglobin. The diluted samples were then oxygenated with compressed air within the Hemox Analyzer and the OECs were collected during deoxygenation as previously described (Guarnone et al., Haematologica, 1995, 80, 426-430). p 50 (partial pressure of O2 at which Hb is 50% saturated with O2) values were obtained using a non-linear regression analysis. Percentage change in p50 [Δp50(%)] was calculated as follows: Δp50(%)=[(p50 of control)−p50 with compound)/p50 control]×100.

The target in series [2] is T2, PXR nuclear receptor (Homo sapiens, UniProt O75469).
T2 construct: expressed in transfected cells; host or cells: DPX2 (stably transfected human hepatoma cells)
T2 sequence (O75469 1-434): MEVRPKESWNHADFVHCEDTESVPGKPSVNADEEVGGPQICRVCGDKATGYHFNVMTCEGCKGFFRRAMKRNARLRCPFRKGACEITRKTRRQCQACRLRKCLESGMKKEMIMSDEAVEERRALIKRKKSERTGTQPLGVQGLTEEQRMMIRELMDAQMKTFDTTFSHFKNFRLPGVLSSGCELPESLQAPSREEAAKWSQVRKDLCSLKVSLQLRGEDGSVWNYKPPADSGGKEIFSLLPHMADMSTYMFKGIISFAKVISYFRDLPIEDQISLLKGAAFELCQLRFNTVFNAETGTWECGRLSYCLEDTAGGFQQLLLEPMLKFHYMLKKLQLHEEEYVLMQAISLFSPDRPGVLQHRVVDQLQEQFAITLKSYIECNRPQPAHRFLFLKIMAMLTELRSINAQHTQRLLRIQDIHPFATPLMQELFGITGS
The series can be described thus: CYP (PXR) assay: PXR nuclear receptor activation in DPX2 reporter cells. In kind it is cell-based. Conditions: fold PXR activation, 24 h. Here is the method:
CYP (PXR) Assay: PXR nuclear receptor activation utilizing stably-transfected human hepatoma cell lines (DPX2) were seeded in a 96-well plate. Twenty-four hours after seeding, the cells were treated with selected concentrations of compounds in duplicate wells, and cells then returned to the incubator for an additional 24 h. At the end of this incubation period, the number of viable cells/well were determined using Promega's Cell Titer Fluor cytotoxicity assay. Subsequently, Promega's ONE-Glo were added to the same wells and reporter gene activity were assessed. The average luminescent units for each compound dose of two replicates were divided by the average for the DMSO solvent control to determine the fold-induction. In accordance with industry standard, a threshold of ≥2.5-fold was used to flag compounds that have in vivo CYP induction risk.

Series [3] in a line: Rat PK, oral gavage. In kind it is in vivo, Sprague-Dawley rats. Conditions: male, Sprague-Dawley, rat, po, 10 mg/kg, oral gavage 10 mg/kg; for blood plasma ratio: whole blood and plasma, AUClast in blood divided by AUClast in plasma, rats; for half-life: whole blood, fasted male Sprague-Dawley rats, 0.5% methylcellulose suspension, blood. Here is the method:
Rat PK: A group of fasted male Sprague-Dawley rats were dosed via oral gavage at 10 mg/kg with test articles formulated in 0.5% methylcellulose suspension. Blood samples were collected through jugular vein at pre-selected time points. Blood samples were prepared by protein precipitation with ACN, vortexed and then centrifuged before supernatants were transferred for bioanalysis. Test article concentrations were measured by HPLC-MS-MS. Pharmacokinetic parameters were calculated using non-compartment analysis. The blood/plasma ratio was calculated by dividing the AUClast (i.e., the area under the curve calculated from t=0 to the last detectable time-point) in blood by the AUClast in plasma. The T1/2 was calculated via a linear regression of the terminal phase of the blood-time concentration profile.

We go through five molecules from patent US11548880B2, “Modulators of hemoglobin” (Global Blood Therapeutics, Inc., priority 2018, dated 2023).

T1 sequence (P69905 2-142 limits assumed): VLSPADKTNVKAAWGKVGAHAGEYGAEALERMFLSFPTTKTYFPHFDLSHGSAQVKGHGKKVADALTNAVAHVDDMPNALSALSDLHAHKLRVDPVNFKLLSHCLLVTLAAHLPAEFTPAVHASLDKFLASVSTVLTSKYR
T1 sequence (P68871 2-147 limits assumed): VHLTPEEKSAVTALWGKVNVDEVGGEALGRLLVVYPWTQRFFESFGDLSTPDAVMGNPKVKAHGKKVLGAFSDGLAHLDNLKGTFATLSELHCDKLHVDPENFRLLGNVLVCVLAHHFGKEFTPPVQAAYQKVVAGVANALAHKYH

Usually half-life stands for the time in which the quantity being followed falls by half. Regarding `O=Cc1c(O)cccc1OCC1CSCCN1C(=O)c1cccnc1CO` (single isomer, unassigned) [Compound 13 (Enantiomer 1), 2-hydroxy-6-((4-(2-(hydroxymethyl)nicotinoyl)-thiomorpholin-3-yl)-methoxy)benzaldehyde], the “Delta-p50 (%)” value in series [1] turned out to be 80.6%. The “CYP (PXR) Flag” value in series [2] (at 30 μM) is “N (PXR activation < 2.5-fold)”. Moreover, in series [3], the blood plasma ratio was determined as 230 and the half-life is 88 h.

For the molecule `O=Cc1c(O)cccc1OC[C@@H]1CCCCN1C(=O)c1cccnc1CCO` [Compound 1, (S)-2-hydroxy-6-((1-(2-(2-hydroxyethyl)nicotinoyl)piperidin-2-yl)methoxy)benzaldehyde], the “Delta-p50 (%)” value in series [1] is 77.3%. Moreover, the “CYP (PXR) Flag” value in series [2] (at 25 μM) was “N^1 (PXR activation < 2.5-fold)”. For the same molecule, in series [3], the blood plasma ratio was found to be 162 and the half-life was 58 h.

For `O=Cc1c(O)cccc1OC[C@@H]1COCCN1C(=O)c1cccnc1CCO` [Compound 8, (S)-2-hydroxy-6-((4-(2-(2-hydroxyethyl)nicotinoyl)morpholin-3-yl)methoxy)benzaldehyde], the “Delta-p50 (%)” value in series [1] turned out to be 79.8%. Moreover, the “CYP (PXR) Flag” value in series [2] (at 30 μM) was “N (PXR activation < 2.5-fold)”. Besides, in series [3], the blood plasma ratio came to 105 and the half-life was 69 h.

Consider `O=Cc1c(O)cccc1OC[C@@H]1COCCN1C(=O)c1cccnc1CO` [Compound 12, (S)-2-hydroxy-6-((4-(2-(hydroxymethyl)nicotinoyl)morpholin-3-yl)methoxy)benzaldehyde], for which, in series [1], the “Delta-p50 (%)” value was determined as 76.7%. In addition, the “CYP (PXR) Flag” value in series [2] (at 30 μM) is recorded as “N (PXR activation < 2.5-fold)”. Moreover, in series [3], the blood plasma ratio stood at 131 and the half-life was 58 h.

Consider `O=Cc1c(O)cccc1OC[C@@H]1COCCN1C(=O)c1ccccc1` [Reference Compound B, reference compound], for which, in series [2] (at 30 μM), the “CYP (PXR) Flag” value was “Y (PXR activation ≥ 2.5-fold)”. Further, in series [3], the blood plasma ratio came out at 98 and the half-life was 29.8 h.
